Reference: patent US20060141024A1, “Synergistic combination kit of alpha,beta-arteether, sulfadoxin and pyrimethamine for treatment of severe/multi-drug resistant cerebral malaria” (COUNCIL OF SIENTIFIC AND INDUSTRIAL RESEARCH, priority 2004, published 2006)
Where two headings read alike, the source gives them in different places.

Legend:
P. falciparum [1] = details: 211 patients of complicated P. falciparum malaria; cited from earlier work
P. yoelii nigeriensis = test: Curative dose against P. yoelii nigeriensis in swiss mice; assay type: in vivo, Plasmodium yoelii nigeriensis; details: for three days (x3), intramuscular
Method: The curative dose of α,β arteether against P. yoelii nigeriensis in gwiss mice (a murine model equivalent to P. falciparum in human) is 7.5 mg/kg for three days. Sulfadoxin/pyrimethtnine combination is usually given for P. falciparum infection, to adult humans as a single dose of 1500 mg sulfadoxin and 75 mg pyremethamine (usually in 3 tablets of 500 mg sulfadoxin and 25 mg pyremethamine) (practical chemotherapy of malaria, WHO, Geneva 1990). For children if they are below 40 kg, only 2 tablets are recommended. […] Although resistance to Fansidar is documented in expatriates in East Africa (Schapira et al. 1986), the drug is reported to be generally effective in the indigenous population (Spencer et al. 1984) and it is treated as second line of drug and is the only affordable drug for chloroquine resistant cases in developing countries. In combination the proposed doses of α,β arteether plus sulfadoxin and pyrimethamine for humans would be 150 mg×3 (im injections) or 450-750 mg×5 (oral dose) of α,β arteether with three tablets of 500 mg sulfadoxin and 25 mg of pyrimethamine for P. falciparum. The proposed combination therapy will certainly reduce the incidence of recrudescence and new infection in high transmission areas.

[2] = system: multi drug resistant P. yoelii nigeriensis; test: Shorter regimen of α/β arteether (im) and Fansidar (oral) against multi drug resistant P. yoelii nigeriensis in Swiss mice; assay type: in vivo, Plasmodium yoelii nigeriensis
Method: Experimental: Swiss mice (20±2 g) were inoculated intra peritoneal with 1×10^6 Plasmodium yoelii nigeriensis (malaria parasite) infected mouse red blood cells. Faosidar was suspended in tween 80 and then in triple distilled water and 2.5 mg/kg dose was administered in previously infected Swiss mice. Fansidar was administered by oral route for only 1 day i.e. on day 0 or day 1. α/β Arteether was dissolved in neutralized and sterilized ground nut oil and doses i.e. 7.5 mg/kg×1, ×2, 5 mg/kg×1, ×2 by intramuscular route were given in combination with 2.5 mg/kg ×1 dose of Fansidar. These doses of both the drugs were given individually for comparison. One group of mice was kept as infected control. After treatment parasitaemia was recorded from tail blood smears of individual mouse.

[3] = system: multi drug resistant P. yoelii nigeriensis; test: α/β arteether (oral, aqueous) and Fansidar (oral) against multi drug resistant P. yoelii nigeriensis in Swiss mice; assay type: in vivo, Plasmodium yoelii nigeriensis
Method: Experimental: Swiss mice (20±2 g) were inoculated intra peritoneal with 1×10^6 Plasmodium yoelii nigeriensis (malaria parasite) infected mouse red blood cells. Fansidar was suspended in tween 80 and then in triple distilled water and different doses i.e. 2.5 and 1.25 mg/kg were administered in previously infected Swiss mice. Fansidar was administered by oral route for only 1 day i.e. on day 0 α/β Arteether was dissolved in tween 80 and triple distilled water and doses i.e. 24 and 12 and 6 mg/kg×4 were given orally in combination with 2.5 and 1.25 mg/kg ×1 dose of Fansidar. These doses of both the drugs were also given individually for comparison. One group of mice was kept as infected control. After treatment parasitaemia was recorded from tail blood smears of individual mouse and their mean parasitaemia was calculated.

P. falciparum [4] = details: arteether 150 mg i.m. daily for three days, uncomplicated P. falciparum malaria, cited from earlier work
[5] = system: multi drug resistant P. yoelii nigeriensis; test: Arteether (im, x3) and Fansidar (oral, x1) in combination against multi drug resistant P. yoelii nigeriensis infection in Swiss mice; assay type: in vivo, Plasmodium yoelii nigeriensis
Method: Experimental: Swiss mice (20±2 g) were inoculated intra peritoneal with 1×10^6 Plasmodium yoelii nigeriensis (malaria parasite) infected mouse red blood cells. Fansidar was suspended in tween 80 and then in triple distilled water and two different doses, i.e. 1.25-2.5 mg/kg were administered in previously infected Swiss mice. Fansidar was administered by oral route for only 1 day. α/β Arteether was dissolved in neutralized and sterilized ground nut oil and doses i.e. 1.25, 1.78 and 2.5mg/kg were administered by intramuscular route for 3 days. In other groups of infected mice these drugs were given individually for comparison. 2.5, 1.78 and 1.25 mg/kg and α/β arteether were given in combinations with 2.5 and 1.25 mg/kg Fansidar. One group of mice was kept as infected control. After treatment parasitaemia was recorded from tail blood smears of individual mouse. (Table-1)

[6] = system: multi drug resistant P. yoelii nigeriensis; test: Variable regimen of α/β arteether (oral, in oil) and Fansidar (oral) against multi drug resistant P. yoelii nigeriensis in Swiss mice; assay type: in vivo, Plasmodium yoelii nigeriensis
Method: Experimental: Swiss mice (20±2 g) were inoculated intra peritoneal with 1×10^6 Plasmodium yoelii nigeriensis (malaria parasite) infected mouse red blood cells. Fansidar was suspended in tween 80 and then in triple distilled water and different doses i.e., 5, 2.5 and 1.25 mg/kg were admimstered in previously infected Swiss mice. Fansidar was administered by oral route for only 1 day i.e. on day 0. α/β Arteether was dissolved in neutralized and sterilized ground nut oil and doses i.e. 25 mg/kg×1 ×4, 12.5mg/kg×4 were given orally in combination with 5.0, 2.5 and 1.25 mg/kg ×1 dose of Fansidar. These doses of both the drugs were given individually for comparison. One group of mice was kept as infected control. After treatment parasitaemia was recorded from tail blood smears of individual mouse and their mean parasitaemia was calculated.

[7] = im, swiss mice; cited from earlier work
uncomplicated malaria = details: cited from earlier work
cerebral malaria = details: comatose cerebral malaria cases; quinine intravenous; cited from earlier work
P. falciparum [8] = details: cited from earlier work
[9] = arteether 5.0 mg/kg x1 (day 0) im alone
[10] = arteether 5.0 mg/kg x2 (days 0, 1) im alone
[11] = arteether 7.5 mg/kg x1 (day 0) im alone
[12] = arteether 7.5 mg/kg x2 (days 0, 1) im alone
[13] = arteether 6 mg/kg x4 oral (aqueous) alone
[14] = arteether 12 mg/kg x4 oral (aqueous) alone
[15] = arteether 24 mg/kg x4 oral (aqueous) alone
[16] = arteether 1.25 mg/kg x3 im alone
[17] = arteether 1.78 mg/kg x3 im alone
[18] = arteether 2.5 mg/kg x3 im alone
[19] = arteether 12.5 mg/kg x4 oral (in oil) alone
[20] = arteether 25.0 mg/kg x4 oral (in oil) alone

CCO[C@H]1O[C@@H]2O[C@@]3(C)CC[C@H]4[C@H](C)CC[C@@H]([C@H]1C)[C@@]24OO3 [α/β arteether, α,β-Arteether]
fever clearance time (P. falciparum [1]): 24 to 168 h | overall cure rate (P. falciparum [1]): 93% | curative dose (P. yoelii nigeriensis): 7.5 mg/kg | Cure rate (%) [2, 9]: 0.0% | Day 4 mice negative/total [2, 9]: 6/6 | Day 7 mice negative/total [2, 9]: 2/6 | Day 10 mice negative/total [2, 9]: 0/4 | Cure rate (%) [2, 10]: 83.3% | Day 4 mice negative/total [2, 10]: 6/6 | Day 7 mice negative/total [2, 10]: 6/6 | Day 10 mice negative/total [2, 10]: 6/6 | Day 14 mice negative/total [2, 10]: 6/6 | Day 21 mice negative/total [2, 10]: 5/5 | Day 28 mice negative/total [2, 10]: 5/5 | Cure rate (%) [2, 11]: 83.3% | Day 4 mice negative/total [2, 11]: 6/6 | Day 7 mice negative/total [2, 11]: 6/6 | Day 10 mice negative/total [2, 11]: 6/6 | Day 14 mice negative/total [2, 11]: 6/6 | Day 21 mice negative/total [2, 11]: 5/5 | Day 28 mice negative/total [2, 11]: 5/5 | Cure rate (%) [2, 12]: 100% | Day 4 mice negative/total [2, 12]: 6/6 | Day 7 mice negative/total [2, 12]: 6/6 | Day 10 mice negative/total [2, 12]: 6/6 | Day 14 mice negative/total [2, 12]: 6/6 | Day 21 mice negative/total [2, 12]: 6/6 | Day 28 mice negative/total [2, 12]: 6/6 | % Cure rate [3, 13]: 0.0% | Mice remained negative on day 4 [3, 13]: 5/7 | Mice remained negative on day 7 [3, 13]: 0/3 | % Cure rate [3, 14]: 0.0% | Mice remained negative on day 4 [3, 14]: 3/7 | Mice remained negative on day 7 [3, 14]: 0/5 | % Cure rate [3, 15]: 14.28% | Mice remained negative on day 4 [3, 15]: 7/7 | Mice remained negative on day 7 [3, 15]: 3/6 | Mice remained negative on day 14 [3, 15]: 1/3 | Mice remained negative on day 21 [3, 15]: 1/2 | Mice remained negative on day 28 [3, 15]: 1/1 | curative dose with oral formulation (calculated) ([3]; x4, oral, aqueous (tween 80/water)): 72 mg/kg | cure rate (P. falciparum [4]; 267 patients): 97% | fever clearance time (P. falciparum [4]): 1 to 7 days | parasite clearance time (P. falciparum [4]): 1 to 3 days | Cure rate (%) [5, 16]: 0.0% | Day 4 mice negative/total [5, 16]: 3/6 | Day 7 mice negative/total [5, 16]: 0/6 | Cure rate (%) [5, 17]: 16.6% | Day 4 mice negative/total [5, 17]: 6/6 | Day 7 mice negative/total [5, 17]: 5/6 | Day 14 mice negative/total [5, 17]: 2/2 | Day 18 mice negative/total [5, 17]: 1/2 | Day 21 mice negative/total [5, 17]: 1/2 | Day 28 mice negative/total [5, 17]: 1/1 | Cure rate (%) [5, 18]: 66.6% | Day 4 mice negative/total [5, 18]: 6/6 | Day 7 mice negative/total [5, 18]: 6/6 | Day 14 mice negative/total [5, 18]: 4/4 | Day 18 mice negative/total [5, 18]: 4/4 | Day 21 mice negative/total [5, 18]: 4/4 | Day 28 mice negative/total [5, 18]: 4/4 | % Cure rate [6, 19]: 28.5% | Mice remained negative on day 4 [6, 19]: 5/7 | Mice remained negative on day 7 [6, 19]: 3/7 | Mice remained negative on day 14 [6, 19]: 2/2 | Mice remained negative on day 21 [6, 19]: 2/2 | Mice remained negative on day 28 [6, 19]: 2/2 | % Cure rate [6, 20]: 57.1% | Mice remained negative on day 4 [6, 20]: 7/7 | Mice remained negative on day 7 [6, 20]: 7/7 | Mice remained negative on day 14 [6, 20]: 4/4 | Mice remained negative on day 21 [6, 20]: 4/4 | Mice remained negative on day 28 [6, 20]: 4/4 | LD50 [7]: 1250 mg/kg

CO[C@H]1O[C@@H]2O[C@@]3(C)CC[C@H]4[C@H](C)CC[C@@H]([C@H]1C)[C@@]24OO3 [artemether]
LD50 [7]: 263 mg/kg

C=C[C@H]1C[N@@]2CC[C@H]1C[C@H]2[C@H](O)c1ccnc2ccc(OC)cc12 [quinine]
recrudescence (uncomplicated malaria; 10 mg/kg x7 days): 16% | reduction in parasitaemia (time) (cerebral malaria): 34.5 h

COc1ncnc(NS(=O)(=O)c2ccc(N)cc2)c1OC [sulfadoxin]
concentration giving 100% inhibition in vitro (P. falciparum [8]): < 5.0 mmol/lit

C[C@H]1[C@H](OC(=O)CCC(=O)O)O[C@@H]2O[C@@]3(C)CC[C@H]4[C@H](C)CC[C@@H]1[C@@]24OO3 [artesunate]
LD50 [7]: 475 mg/kg

C[C@@H]1CC[C@H]2[C@@H](C)C(=O)O[C@@H]3O[C@@]4(C)CC[C@@H]1[C@]32OO4 [artemisiain, artemisinin]
recrudescence (uncomplicated malaria; 20 mg/kg x3 days): 38% | recrudescence (uncomplicated malaria; 20 mg/kg x5 days): 15% | reduction in parasitaemia (time) (cerebral malaria): 16 h
